According to publication PMC7347206, “Characterization of a long-term mouse primary liver 3D tissue model recapitulating innate-immune responses and drug-induced liver toxicity” (PLoS ONE, 2020):
Like-named read-outs stand apart in the source and are kept apart here.

Legend:
[1] = read-out: Human Cmax; reported human in vivo Cmax; 48 (one per compound, as in cell); cited from earlier work
[2] = system: mouse primary hepatocyte 3D liver spheroids; experiment: cells; details: for IC50: Mus musculus, Hepatocyte; for MOS [3D in vitro IC50 / Human Cmax] 48 h / MOS [3D in vitro IC50 / Human Cmax] 8 days: C57BL/6, mouse
Description: To avoid increased evaporation, a humidified lid (Labcyte, USA), filled with PBS, was placed on each plate. […] From day 4 on, 50% of the medium was replaced daily with serum-free maintenance medium (WME with Cell Maintenance Supplement Pack (Thermo Fisher Scientific, USA)).
Compounds were obtained from Sigma-Aldrich if not otherwise stated. […] Toxicity treatment started on day 7 with re-dosing every second day. On the first day of exposure, 50 μl of the cell culture media was removed and 50 μl of fresh cell culture media containing the compound solution was added to the well to achieve the desired concentration. For redosing, 50 μl of cell culture media was replaced with fresh compound-containing cell culture media. […] The dose-response curves were plotted, and IC50 values were calculated using Graph-Pad Prism.
Drug-induced liver injury (DILI) is a major concern in drug development, which often cannot be predicted in vitro due to inherent limitations of 2D hepatocyte cultures, including short-term viability and decreased functionality. […] The spheroids either experienced a single treatment and were analyzed after 48 hours (Fig 3A–3G, 48 h), or they were repeatedly treated every 2 days and analyzed at day 8 (Fig 3A–3G, 8 days). In both cases, ATP content was used as a viability marker.

[3] = read-out: Mouse Cmax; reported mouse in vivo maximal plasma concentration; 41 (one per compound, as in cell); cited from earlier work
[4] = system: liver coculture spheroids; experiment: Cytotoxicity by LDH release or ATP content in the cholestasis study; details: all treatment conditions (1.25, 2.5, 10 μM), 24 h
[5] = system: bile-salt-export pump (BSEP); experiment: Drug-induced cholestasis: BSEP gene expression (qRT-PCR) in coculture spheroids; details: 24 h
TNFα = experiment: Crosstalk of parenchymal and non-parenchymal cells: TNFα mRNA in coculture spheroids; assay type: cell-based, mouse; details: addition of 50 μM Dexamethasone to LPS; as compared to IL-6
Description: (§1) Cytochrome P450 (Cyp450), as well as IL-6 and TNFα gene expression was measured by qRT-PCR.
(§2) Drug-induced liver injuries can be caused by several modes of action, including perturbations of biochemical pathways caused by the interaction of parenchymal and non-parenchymal cells. These complex and dynamic cellular interactions can only be represented in vivo or in coculture models, which include the parenchymal and non-parenchymal cells.

IL-6 = experiment: Crosstalk of parenchymal and non-parenchymal cells: IL-6 mRNA in coculture spheroids; assay type: cell-based, mouse
Description: as §1, §2

Cyp3a = Cyp3a inhibition, P450-Glo activity assay in non-induced spheroids; details: 10 μM Ketoconazole
Cyp3a11 [6] = experiment: Cyp450 induction on mRNA level (qRT-PCR) in liver spheroids; assay type: in vitro ADME, mouse; details: PCN 50 μM, Pb 100 μM
Description: (§3) To analyze the metabolic capacity, spheroids were incubated with different Cyp inducers for 72 hours, starting 7 days or 14 days post seeding and analyzed by qRT-PCR. […] PCN and βNF were dissolved in DMSO as a 1000x stock solution, Pb was dissolved directly in the cell culture media.
(§4) For the biotransformation of endogenous compounds and xenobiotics including drugs, liver cytochromes P450 (Cyp450) play a critical role as they convert substances into more polar products to facilitate the elimination from the body. The major drug-metabolizing Cyp450 in mouse include Cyp1a1, Cyp1a2, Cyp2b10, and Cyp3a11 [34]. To assess their metabolic capacity, spheroids were incubated with well-known Cyp450 inducers for […] and analyzed for Cyp450 induction on RNA level on day 10 and day 17 (Figs 2C and S4). […] Additionally, spheroids were incubated with Phenobarbital (Pb), a known Cyp2b10 and Cyp3a11 inducer.

Cyp2b10 = experiment: as above; assay type: in vitro ADME, mouse; details: 100 μM Pb
Description: as §3, §4

Cyp3a11 [7] = system: Cyp3a11; set-up: method as in PMID 22466549; details: mouse in vivo; cited from earlier work
Cyp1a1 = experiment: Cyp450 induction on mRNA level (qRT-PCR) in liver spheroids; assay type: in vitro ADME, mouse; details: 15 μM βNF
Description: as §3, §4

Cyp1a2 = experiment: as above; assay type: in vitro ADME, mouse; details: 15 μM βNF
Description: as §3, §4

Cyp3a11 [8] = experiment: Crosstalk of parenchymal and non-parenchymal cells: Cyp3a11 mRNA in coculture spheroids ± LPS; details: LPS alone, 10 μg/ml, 48 h
Description: as §1, §2

[9] = system: IL-6 release of Kupffer cells and liver sinusoidal endothelial cells; experiment: LPS-induced IL-6 release (ELISA) from liver spheroids; assay type: cell-based, mouse; details: LPS for 72 hours, 14 days after production
Description: (§5) The activation potential of Kupffer cells and liver sinusoidal endothelial cells was measured by assessing the lipopolysaccharide (LPS)-induced interleukin 6 (IL-6) release. […] was added, and the supernatant was collected after […]. IL-6 concentrations were measured by ELISA (BioLegend, USA). For stellate-cell activation, spheroids were treated with different concentrations of transforming growth factor beta TGFβ (Bio-Techne AG, Switzerland) for 72 hours. Induction of smooth-muscle-α-actin (Acta2) gene expression was measured via quantitative real-time polymerase chain reaction (qRT-PCR), described in the section “gene expression analysis”. For the induction of the major histocompatibility complex class II (MHCII) on LSECs, spheroids were treated with 100 ng ml^-1 tumor-necrosis factor alpha (TNFα; Sigma-Aldrich, Switzerland) for 48 h. H2-Ab1 gene expression was measured via qRT-PCR.
(§6) NPCs are activated upon detection of endotoxins, such as lipopolysaccharides (LPS), which leads to the secretion of certain cytokines by NPCs. To assess the functionality and activation potential of NPCs, monoculture and coculture spheroids were treated with LPS for 72 hours and analyzed for interleukin 6 (IL-6) release (Fig 4C). […] Stellate cells are quiescent in a normal liver but can be activated upon liver damage and are responsible for scar-tissue formation. […]

[10] = system: Acta2 (alpha smooth muscle actin); experiment: Stellate-cell activation: Acta2 gene expression (qRT-PCR) in coculture spheroids; assay type: cell-based, mouse; details: 72 h
Description: as §5
NPCs are activated upon detection of endotoxins, such as lipopolysaccharides (LPS), which leads to the secretion of certain cytokines by NPCs. To assess the functionality and activation potential of NPCs, monoculture and coculture spheroids were treated with LPS for 72 hours and analyzed for interleukin 6 (IL-6) release (Fig 4C). […] Stellate cells are quiescent in a normal liver but can be activated upon liver damage and are responsible for scar-tissue formation. Stimulation with transforming growth factor beta (TGFβ), triggered a dose-dependent induction of Acta2 (alpha smooth muscle actin, αSMA), which is an activation marker for stellate cells (Fig 4D). Low concentrations of TGFβ increased Acta2 induction by 3.5 fold, whereas higher concentrations induced gene expression by 4.7-fold and 8-fold, respectively. The functional characterization of liver sinusoidal endothelial cells was performed by induction of the major histocompatibility complex II (MHC-II), which is constitutively expressed in LSECs but can be further increased by exposure to pro-inflammatory cytokines, such as tumor necrosis factor alpha (TNFα).

H2-Ab1 (MHC-II) = experiment: MHC-II induction on LSECs: H2-Ab1 gene expression (qRT-PCR) in coculture spheroids; assay type: cell-based, mouse; details: 100 ng ml^-1 TNFα, 48 h
Description: as §5, §6

[11] = read-out: 3D in vitro IC50 8 days
[12] = read-out: 3D in vitro IC50 48 h

CC(=O)Nc1ccc(O)cc1 [Acetaminophen]
Cmax [1]: 136 µM
IC50 [2, 11]: 2750 µM
Cmax [3]: 2220 µM

O=C1CC2(CCCC2)CC(=O)N1CCCCN1CCN(c2ncccn2)CC1 [Buspirone]
Cmax [1]: 0.009 µM
MOS [3D in vitro IC50 / Human Cmax] 48 h [2]: 49189
MOS [3D in vitro IC50 / Human Cmax] 8 days [2]: 20489
IC50 [2, 12]: 443 µM
IC50 [2, 11]: 184 µM
hepatotoxicity class by IC50/Cmax (MOS) ([2]; mouse): non-DILI compounds

CN(C)CCCN1c2ccccc2Sc2ccc(Cl)cc21 [CPZ, Chlorpromazine]
cytotoxicity by LDH or ATP [4]: no cytotoxicity
inhibition of BSEP expression ([5]; high concentrations of CPZ): 96%
inhibition of BSEP expression ([5]; low concentrations of CPZ): up to 87%

O=P1(N(CCCl)CCCl)NCCCO1 (stereo not shown) [Cyclophosphamide]
Cmax [1]: 96 µM
IC50 [2, 12]: 197 µM
IC50 [2, 11]: 13.3 µM
hepatotoxicity class by IC50/Cmax (MOS) ([2]; after 48 hours (short-term exposure), cut-off 100): hepatotoxic agents
Cmax [3]: 77 µM

C[C@@H]1C[C@H]2[C@@H]3CCC4=CC(=O)C=C[C@]4(C)[C@@]3(F)[C@@H](O)C[C@]2(C)[C@@]1(O)C(=O)CO [Dexamethasone]
effect on LPS-induced TNFα gene expression (TNFα): only moderate reduction
reduction of LPS-induced IL-6 mRNA induction (IL-6; co-administration of 50 μM Dexamethasone with LPS): ~ 50%

O=C(O)Cc1ccccc1Nc1c(Cl)cccc1Cl [Diclofenac]
Cmax [1]: 9.43 µM
IC50 [2, 12]: 294 µM
IC50 [2, 11]: 29.7 µM
Cmax [3]: 10 µM

CC(=O)N1CCN(c2ccc(OCC3COC(Cn4ccnc4)(c4ccc(Cl)cc4Cl)O3)cc2)CC1 (stereo not shown) [Ketoconazole]
downregulation of Cyp3a activity (Cyp3a): 60%

CN(Cc1cnc2nc(N)nc(N)c2n1)c1ccc(C(=O)N[C@@H](CCC(=O)O)C(=O)O)cc1 [Methotrexate]
reduction in cell viability after a single dosage [2]: only a slight reduction in cell viability
MOS [3D in vitro IC50 / Human Cmax] 48 h [2]: 84’231
MOS [3D in vitro IC50 / Human Cmax] 8 days [2]: 44.64
IC50 [2, 11]: 207 µM
hepatotoxicity class by IC50/Cmax (MOS) ([2]; mouse): assigned to the correct class
Cmax [3]: 43 µM

CCC1(c2ccccc2)C(=O)NC(=O)NC1=O [Phenobarbital]
Cyp3a11 mRNA induction compared to the vehicle control (Cyp3a11 [6]; day 10 (treated day 7-10)): 6.2 fold
Cyp3a11 mRNA induction compared to the vehicle control (Cyp3a11 [6]; day 17 (treated day 14-17)): 3.9 fold
Cyp2b10 mRNA induction (Cyp2b10; day 10): 1.9 fold
Cyp2b10 mRNA induction (Cyp2b10; day 17): 2.4 fold

CC(=O)[C@H]1[C@H](C#N)C[C@H]2[C@@H]3CC=C4C[C@@H](O)CC[C@]4(C)[C@H]3CC[C@@]21C [Pregnenolone 16α-carbonitrile]
Cyp3a11 mRNA induction compared to the vehicle control (Cyp3a11 [6]; day 10 (treated day 7-10)): 20 fold
Cyp3a11 mRNA induction compared to the vehicle control (Cyp3a11 [6]; day 17 (treated day 14-17)): 59 fold
reduced expression of Cyp3a11 mRNA when administered together with LPS (Cyp3a11 [7]): 25%

CC(C)NCC(O)COc1cccc2ccccc12 (stereo not shown) [Propranolol]
Cmax [1]: 0.2 µM

CN(C)[C@@H]1C(O)=C(C(N)=O)C(=O)[C@@]2(O)C(O)=C3C(=O)c4c(O)cccc4[C@@](C)(O)[C@H]3C[C@@H]12 [Tetracycline]
Cmax [1]: 21 µM
IC50 [2, 12]: 436 µM
IC50 [2, 11]: 39.7 µM
Cmax [3]: 11 µM

Cc1c(C)c2c(c(C)c1O)CCC(C)(COc1ccc(CC3SC(=O)NC3=O)cc1)O2 (stereo not shown) [Troglitazone]
cytotoxicity by LDH or ATP [4]: no cytotoxicity
inhibition of BSEP expression ([5]; 1.25 μM): 10%
inhibition of BSEP expression ([5]; 2.5 μM): 40%
inhibition of BSEP expression ([5]; 10 μM): 89%

O=c1cc(-c2ccccc2)oc2ccc3ccccc3c12 [β-naphthoflavone]
Cyp1a1 mRNA induction (Cyp1a1; day 10): 90 fold
Cyp1a1 mRNA induction (Cyp1a1; day 17): 103 fold
Cyp1a2 mRNA induction (Cyp1a2; day 10): 157 fold
Cyp1a2 mRNA induction (Cyp1a2; day 17): 59 fold

lipopolysaccharide [LPS]
IL-6 mRNA expression increase (IL-6; LPS alone, 10 μg/ml, 48 h, coculture spheroids): 6 fold
Cyp3a11 mRNA induction (Cyp3a11 [8]): did not lead to Cyp3a11 mRNA induction
IL-6 release ([9]; coculture spheroids): 65 ± 11 pg/mL
IL-6 release ([9]; monoculture spheroids): 2 pg/mL

transforming growth factor beta [TGFβ]
Acta2 induction ([10]; higher concentration of TGFβ (first of two)): 4.7 fold
Acta2 induction ([10]; higher concentration of TGFβ (second of two)): 8 fold
Acta2 induction ([10]; low concentrations of TGFβ): 3.5 fold

tumor-necrosis factor alpha [TNFα]
increase of mRNA expression of MHC-II (H2-Ab1) (H2-Ab1 (MHC-II)): 2.3 fold
